The record followed here is US10253274B2, “Compounds and methods for inhibiting corrosion in hydrocarbon processing units” (General Electric Company, priority 2012, dated 2019).

Molecules are shown by their SMILES. Where two headings read alike, the source gives them in different places.

Series [1] can be described thus: Neutralization efficiency by two-phase titration (pH at amine titrant concentration). It is filed as physicochemical. The conditions noted are these: 100° C.; for Neutral. Efficiency pH at 250 ppm: 250 ppm amine titrant; for Neutral. Efficiency pH at 500 ppm: 500 ppm amine titrant; for Neutral. Efficiency pH at 1000 ppm: 1000 ppm amine titrant. As for the experimental part:
Several amines were tested to determine their efficiencies in neutralizing acidic species and reducing deposits of hydrochloride and amine salts. The neutralization efficiency of these amines was tested using two-phase titration. For each amine tested, a titrand (100 ml) was placed in a flask. The titrand was designed to simulate an initial condensate and comprised 90 vol % naphtha and 10 vol % acidic water. The titrand was heated to 100° C. and maintained at that temperature while amine titrant was added to the flask.
A second set of tests were performed using some of the effective amines above. Additional tertiary amines were also tested and found to be effective. The additional tertiary amines were N-methyl piperidine, 2-dimethylamino 2-methyl 1-propanol (“DMAMP”) in an azeotropic solution comprising 80 wt % amine, N,N,N′,N′-tetramethyldiamino methane (“TMMD”), dimethyl tertiary butanolamine (“DMTBA”), and dimethyl methoxypropylamine (“DMMOPA”). The neutralization efficiency of these amines was tested using two-phase titration. For each amine tested, a titrand (100 ml) was placed in a flask. The titrand was designed to simulate an initial condensate and comprised 90 vol % naphtha and 10 vol % acidic water. The titrand was heated to 100° C. and maintained at that temperature while amine titrant was added to the flask. The tests were repeated 3 times in the second set of tests. The data in Table 2 are the averages of the 3 repeated tests.

The nature of series [2]: Amine-HCl salt precipitation potential index (Salt PPI) relative to ammonia salt. It is filed as physicochemical. The text has this: Without limiting this specification to any particular theory of operation, the overall efficiency of a given amine may be predicted upon assessment of several factors. One such factor is the amine-HCl salt precipitation potential index (“Salt PPI”). The Salt PPI may also be known by those in the art as the salt volatility index. These indices are merely a comparison of the precipitation potential of the amine salt to the salt of a typical neutralizing compound used in hydrocarbon refining, ammonia.
Salt PPI may be calculated from the equation: […]
If one were to substitute the vapor pressure of ammonia for the vapor pressure of the amine in the equation, the Salt PPI would be 1.0. Effective amines are those that are as good, if not better than the typical additive, ammonia. Thus, effective amines would have a Salt PPI of equal to or less than 1.0. Other neutralizers commonly used in hydrocarbon refining are trimethylamine and N-methylmorpholine.

Another series can be described thus: pKa of the amine. It is filed as physicochemical. The source says: Another factor indicative of the overall efficiency of a given amine is the logarithm of the acid dissociation constant, pKa. Generally, amines with higher pKa values are more efficient neutralizers. Accordingly, in another embodiment, the treatment composition may comprise an amine with a pKa equal to or greater than about 5.0.

The nature of another series: Boiling point. The conditions noted are these: Table 2.
[3] abbreviates: Table 2, second set, averages of 3 repeated tests.
The mark [4] stands for this setting: Table 1, average over 225 to 300° F., ammonia benchmark = 1.0.
The mark [5] stands for this setting: Table 2, average over 225 to 300° F., ammonia benchmark = 1.0.

Regarding `CC(C)C(C)N` (stereo not shown) [1,2 Dimethyl propyl amine, 1,2 dimethylpropylamine], the “Neutral. Efficiency pH at 250 ppm” value is recorded as 1.4 in series [1] (Table 1, first set of tests) and 1.4 in series [1] (setting [3]). In addition, the “Neutral. Efficiency pH at 500 ppm” value in series [1] (Table 1, first set of tests) came out at 8.5; in series [1] (setting [3]) it was 8.5. For the same compound, the “Neutral. Efficiency pH at 1000 ppm” value in series [1] (Table 1, first set of tests) is given as 9.6; in series [1] (setting [3]) it was 9.6. The “Salt PPI” value in series [2] (setting [4]) is recorded as less than 0.1; in series [2] (setting [5]), 0.30. For the same compound, the pKa in “pKa of the amine” (Table 1, read-out: pKa) stood at 9.9. The “Boiling Point” value in the series “Boiling point” was 87 °C. Further, the “Solubility Oil/Water” value in “Solubility Oil/Water” (Table 1) and in the series “Solubility Oil/Water” (Table 2) was “Water” each time.

Turning to `CN1CCN(C)CC1` [1,4-dimethylpiperazine], the “Neutral. Efficiency pH at 250 ppm” value in series [1] (Table 1, first set of tests) was 3.7; in series [1] (setting [3]) it was 3.7. Further, the “Neutral. Efficiency pH at 500 ppm” value in series [1] (Table 1, first set of tests) was 5.5; in series [1] (setting [3]) it was 5.5. The “Neutral. Efficiency pH at 1000 ppm” value in series [1] (Table 1, first set of tests) was 7.6; in series [1] (setting [3]), 7.6. Further, the “Salt PPI” value in series [2] (setting [4]) is listed as less than 0.1; in series [2] (setting [5]), 0.18. The pKa in the series “pKa of the amine” (Table 1, read-out: pKa) stood at 8.2. Also, in the series “Boiling point”, the “Boiling Point” value was determined as 132 °C. The “Solubility Oil/Water” value is recorded as “Water” in the series “Solubility Oil/Water” (Table 1); “Water” in “Solubility Oil/Water” (Table 2); “Water” in “Solubility Oil/Water” (Table 3, exemplary treatment composition); “Water” in “Solubility Oil/Water” (Table 4, exemplary treatment composition).

`CN(C)C(C)(C)CO` [2-Dimethylamino 2-methyl 2-propanol (DMAMP) 80% azeotrope so] [2-dimethylamino 2-methyl 1-propanol]: in series [1] (setting [3]), the “Neutral. Efficiency pH at 250 ppm” value was 2.3, the “Neutral. Efficiency pH at 500 ppm” value is given as 6.3 and the “Neutral. Efficiency pH at 1000 ppm” value came out at 9.5. Moreover, in series [2] (setting [5]), the “Salt PPI” value is 0.27. Besides, the “Boiling Point” value in “Boiling point” came out at 98 °C. Further, the “Solubility Oil/Water” value in the series “Solubility Oil/Water” (Table 2) was “Water”.

Take `CN(C)C(C)(C)CO` [2-dimethylamino 2-methyl 1-propanol]: the pKa in “pKa of the amine” (Table 2, read-out: pKa) was found to be 10.2.

With `CCN(O)CC` [Diethylhydroxylamine], in series [1] (Table 1, first set of tests), the “Neutral. Efficiency pH at 250 ppm” value is 2.4, the “Neutral. Efficiency pH at 500 ppm” value is reported as 4.1 and the “Neutral. Efficiency pH at 1000 ppm” value came out at 5.0. The “Salt PPI” value in series [2] (setting [4]) is recorded as less than 0.1. Further, in the series “pKa of the amine” (Table 1, read-out: pKa), the pKa came to 5.61. In the series “Solubility Oil/Water” (Table 1), the “Solubility Oil/Water” value is “Water”.

Regarding `C#CCN(CC)CC` [Diethylpropargylamine, diethylpropargylamine], in series [1] (Table 1, first set of tests), the “Neutral. Efficiency pH at 250 ppm” value was found to be 2.2, the “Neutral. Efficiency pH at 500 ppm” value stood at 3.6 and the “Neutral. Efficiency pH at 1000 ppm” value is 5.9. Also, in series [2] (setting [4]), the “Salt PPI” value is given as 0.12. Besides, in “pKa of the amine” (Table 1, read-out: pKa), the pKa came out at 7.7.

Take `COCCCN(C)C` [Dimethyl methoxypropyl-amine (DMMOPA), dimethyl methoxypropylamine]: the “Salt PPI” value in series [2] (setting [5]) is 0.20. The “Boiling Point” value in the series “Boiling point” stood at 124 °C. Besides, the “Solubility Oil/Water” value in the series “Solubility Oil/Water” (Table 2) is reported as “Water”.

Consider `CN(C)C(C)(C)CO` [Dimethyl tertiarybutanolamine (DMTBA), dimethyl tertiary butanolamine], for which the “Salt PPI” value in series [2] (setting [5]) amounted to 0.32. Moreover, in the series “pKa of the amine” (Table 2), the pKa is on record as 8.9. Further, in the series “Boiling point”, the “Boiling Point” value amounted to 150 °C. In the series “Solubility Oil/Water” (Table 2), the “Solubility Oil/Water” value was “Water”.

With `CN(C)C1CCCCC1` [Dimethylcyclohexylamine, dimethylcyclohexylamine], in series [1] (Table 1, first set of tests), the “Neutral. Efficiency pH at 250 ppm” value worked out at 1.8, the “Neutral. Efficiency pH at 500 ppm” value is reported as 1.9 and the “Neutral. Efficiency pH at 1000 ppm” value was 5.2. In addition, the “Salt PPI” value in series [2] (setting [4]) came to 0.10. The pKa in “pKa of the amine” (Table 1, read-out: pKa) amounted to 10.

For the compound `NCc1ccco1` [Furfurylamine, furfurylamine], in series [1] (Table 1, first set of tests), the “Neutral. Efficiency pH at 250 ppm” value was 2.6, the “Neutral. Efficiency pH at 500 ppm” value was determined as 6.5 and the “Neutral. Efficiency pH at 1000 ppm” value is 8.5. The “Salt PPI” value in series [2] (setting [4]) is 0.38. Besides, the pKa in the series “pKa of the amine” (Table 1, read-out: pKa) was 8.89. In addition, the “Solubility Oil/Water” value in “Solubility Oil/Water” (Table 1) is recorded as “Water”.

Consider `CN(C)CN(C)C` [N,N,N′,N′-tetramethyldiaminomethane], for which, in series [1] (setting [3]), the “Neutral. Efficiency pH at 250 ppm” value was 7.54, the “Neutral. Efficiency pH at 500 ppm” value came out at 8.87 and the “Neutral. Efficiency pH at 1000 ppm” value is reported as 9.25. Besides, the “Salt PPI” value in series [2] (setting [5]) was determined as 0.30.

Consider `CN(C)CCN(C)C` [N,N,N′,N′-tetramethylethylenediamine], for which the “Neutral. Efficiency pH at 250 ppm” value in series [1] (Table 1, first set of tests) was found to be 4.7; in series [1] (setting [3]), 4.7. The “Neutral. Efficiency pH at 500 ppm” value in series [1] (Table 1, first set of tests) turned out to be 6.7; in series [1] (setting [3]), 6.7. In addition, the “Neutral. Efficiency pH at 1000 ppm” value is recorded as 8.3 in series [1] (Table 1, first set of tests) and 8.3 in series [1] (setting [3]). The results for the “Salt PPI” value in series [2] (setting [4]) and in series [2] (setting [5]) were 0.27 and 0.48, respectively. Further, the pKa was determined as 8.97 in “pKa of the amine” (Table 1, read-out: pKa) and 8.97 in the series “pKa of the amine” (Table 2). Besides, the “Boiling Point” value in the series “Boiling point” was 122 °C. Besides, the “Solubility Oil/Water” value in “Solubility Oil/Water” (Table 1) and in the series “Solubility Oil/Water” (Table 2) was “Water” each time.

With `CN1CCCCC1` [N-methyl piperidine], in series [1] (setting [3]), the “Neutral. Efficiency pH at 250 ppm” value was determined as 2.1, the “Neutral. Efficiency pH at 500 ppm” value amounted to 7.5 and the “Neutral. Efficiency pH at 1000 ppm” value amounted to 8.1. Also, in series [2] (setting [5]), the “Salt PPI” value is listed as 0.24. Besides, the pKa in “pKa of the amine” (Table 2, read-out: pKa) came out at 10.1. Moreover, the “Boiling Point” value in the series “Boiling point” was 107 °C. For the same compound, the “Solubility Oil/Water” value in “Solubility Oil/Water” (Table 2) is reported as “Water”.

`CCCCN(C)CCCC` [N-methyldibutylamine]: in series [1] (Table 1, first set of tests), the “Neutral. Efficiency pH at 250 ppm” value turned out to be 1.9, the “Neutral. Efficiency pH at 500 ppm” value is 2.0 and the “Neutral. Efficiency pH at 1000 ppm” value stood at 5.0. The “Salt PPI” value in series [2] (setting [4]) was less than 0.1. The pKa in the series “pKa of the amine” (Table 1, read-out: pKa) turned out to be 10.3.

In the case of `CCCN(C)CCC` [N-methyldipropylamine], in series [1] (Table 1, first set of tests), the “Neutral. Efficiency pH at 250 ppm” value amounted to 2.4, the “Neutral. Efficiency pH at 500 ppm” value is recorded as 2.8 and the “Neutral. Efficiency pH at 1000 ppm” value is on record as 5.6. For the same compound, the “Salt PPI” value in series [2] (setting [4]) was less than 0.1. The pKa in the series “pKa of the amine” (Table 1, read-out: pKa) worked out at 10.1.

As for `CN1CCOCC1` [N-methylmorpholine (NMM), N-methylmorpholine, reference compound], in series [1] (Table 1, first set of tests), the “Neutral. Efficiency pH at 250 ppm” value is listed as 2.4, the “Neutral. Efficiency pH at 500 ppm” value is reported as 5.4 and the “Neutral. Efficiency pH at 1000 ppm” value is recorded as 6.8. Moreover, in series [1] (setting [3]), the “Neutral. Efficiency pH at 250 ppm” value is reported as 2.4, the “Neutral. Efficiency pH at 500 ppm” value was determined as 5.4 and the “Neutral. Efficiency pH at 1000 ppm” value is on record as 6.8. The “Salt PPI” value in series [2] (setting [4]) is 0.18. For the same compound, the “Salt PPI” value in series [2] (setting [5]) is reported as 0.18. In addition, in “pKa of the amine” (Table 1, read-out: pKa), the pKa amounted to 7.1. The “Boiling Point” value in “Boiling point” is 116 °C.

On to `N` [ammonia, reference compound], for which the “Salt PPI” value in series [2] (ammonia salt is the benchmark) was found to be 1.0.

In the case of `CCCNCCC` [di-N-propyl amine, di-N-propylamine], in series [1] (Table 1, first set of tests), the “Neutral. Efficiency pH at 250 ppm” value is listed as 2.2, the “Neutral. Efficiency pH at 500 ppm” value came to 3.0 and the “Neutral. Efficiency pH at 1000 ppm” value came out at 7.6. Further, the “Salt PPI” value in series [2] (setting [4]) worked out at 0.24. The pKa in “pKa of the amine” (Table 1) turned out to be 10.91.
